In patent publication US9663528B2, “Substituted 1,2,3,4,6,8,12,12a-octahydro-1,4-methanodipyrido[1,2-a:1',2'-d]pyrazines and methods for treating viral infections” (priority 2012, dated 2017):
Where two headings read alike, the source gives them in different places.

Assays:
[1] = Pharmacokinetic analysis following intravenous administration to beagle dogs; type: in vivo; settings: male, dog, 0.5 mg/kg; for Vd: read-out: Vss
Protocol: (§1) Pharmacokinetic analysis was performed on various test compounds following intravenous or oral administration to beagle dogs.
(§2) For pharmacokinetic analysis of intravenously administered compounds, the test compounds were formulated in 5% Ethanol, 55% PEG 300, and 40% water at 0.1 mg/mL for IV infusion. For pharmacokinetic analysis of orally administered compounds, the test compounds were formulated as an aqueous suspension in 0.1% Tween 20, 0.5% HPMC LV 100 in Di Water at 1 mg/kg.
(§3) Each dosing group consisted of 3 male, non-naïve purebred beagle dogs. At dosing, the animals weighed between 10 to 13 kg. The animals were fasted overnight prior to dose administration and up to 4 hr after dosing. For studies of intravenous administration, the test article was administered to the animals by intravenous infusion over 30 min. The rate of infusion was adjusted according to the body weight of each animal to deliver a dose of 0.5 mg/kg. For studies of oral administration, the test article was administered according to the body weight of each animal to deliver a dose of 1 mg/kg.
For pharmacokinetic analysis of intravenously administered compounds, serial venous blood samples (approximately 1 mL each) were taken from each animal at 0, 0.250, 0.483, 0.583, 0.750, 1.00, 1.50, 2.00, 4.00, 8.00, 12.0, and 24.0 hours after dosing. The blood samples were collected into Vacutainer™ tubes containing EDTA-K2 as the anti-coagulant and were immediately placed on wet ice pending centrifugation for plasma. An LC/MS/MS method was used to measure the concentration of the test compound in plasma. An aliquot of 100 μL of each plasma sample was added to a clean 96 well plate, and 400 μL of cold acetonitrile/internal standard solution (ACN)/(ISTD) was added. After protein precipitation, an aliquot of 110 μL of the supernatant was transferred to a clean 96-well plate and diluted with 300 μL of water. An aliquot of 25 μL of the above solution was injected into a TSQ Quantum Ultra LC/MS/MS system utilizing a Hypersil Gold C18 HPLC column (50×3.0 mm, 5 μm; Thermo-Hypersil Part #25105-053030). An Agilent 1200 series binary pump (P/N G1312A Bin Pump) was used for elution and separation, and an HTS Pal autosampler (LEAP Technologies, Carrboro, N.C.) was used for sample injection. A TSQ Quantum Ultra triple quadrupole mass spectrometer was utilized in selective reaction monitoring mode (Thermo Finnigan, San Jose, Calif.). Liquid chromatography was performed using two mobile phases: mobile phase A contained 1% acetonitrile in 2.5 mM ammonium formate aqueous solution with pH of 3.0, and mobile phase B contained 90% acetonitrile in 10 mM ammonium formate with pH of 4.6. Non-compartmental pharmacokinetic analysis was performed on the plasma concentration-time data. The resulting data are shown in the first three columns of Table 4. In Table 4, CL refers to clearance, which characterizes the rate at which drug is removed from plasma. The lower the clearance of a drug is, the longer the elimination half-life is in the body. Vss refers to the steady state volume of distribution and indicates how well a drug is distributed into the tissues. The larger the Vss is, the longer the elimination half-life is in the body. MRT refers to mean residence time, which is a measure of the average time molecules exist in the body.

[2] = in vitro; settings: human
[3] = target: PXR (Homo sapiens (Human), UniProt O75469); experiment: Human PXR activation assay (luciferase reporter gene assay, DPX2 cells); type: cell-based; settings: human
PXR, sequence (O75469 whole entry): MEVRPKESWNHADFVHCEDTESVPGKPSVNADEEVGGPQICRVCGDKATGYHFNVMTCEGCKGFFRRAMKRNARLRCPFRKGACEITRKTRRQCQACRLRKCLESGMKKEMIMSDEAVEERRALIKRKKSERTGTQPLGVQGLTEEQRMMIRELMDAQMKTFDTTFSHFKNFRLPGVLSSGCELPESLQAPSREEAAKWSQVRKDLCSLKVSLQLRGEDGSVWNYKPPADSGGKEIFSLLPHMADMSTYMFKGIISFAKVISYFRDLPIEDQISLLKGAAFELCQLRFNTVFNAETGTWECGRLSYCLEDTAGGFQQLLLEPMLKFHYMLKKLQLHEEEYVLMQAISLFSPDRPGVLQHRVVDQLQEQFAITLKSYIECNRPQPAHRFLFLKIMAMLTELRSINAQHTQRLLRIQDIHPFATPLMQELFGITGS
Protocol: A stably transformed tumor cell line (DPX2) was plated on 96-well microtiter plates. DPX2 cells harbor the human PXR gene (NR112) and a luciferase reporter gene linked to two promoters identified in the human CYP3A4 gene, namely XREM and PXRE. […] The number of viable cells was determined and the reporter gene activity was assessed. Positive control: […]

[4] = Pharmacokinetic analysis following oral administration to beagle dogs; type: in vivo; settings: 1 mg/kg
Protocol: as §1, §2, §3
For pharmacokinetic analysis of orally administered compounds, serial venous blood samples (approximately 0.3 mL each) were taken from each animal at time points of 0, 0.25, 0.50, 1.0, 2.0, 4.0, 6.0, 8.0, 12.0 and 24.0 hours after dosing. Blood samples were collected, prepared and analyzed in a similar way to the intravenous studies described above. Non-compartmental pharmacokinetic analysis was performed on the plasma concentration-time data. The resulting data are shown in the last three columns of Table 4. In Table 4, F (%) refers to oral bioavailability. Cmax refers to the peak plasma concentration of the compound after administration. AUC refers to area under the curve and is a measure of total plasma exposure of the indicated compound.

[5] = target: OCT2 (Homo sapiens (Human), UniProt O15244); experiment: OCT2 inhibition assay (14C-TEA uptake, OCT2-transfected MDCKII cells); type: cell-based
OCT2, sequence (O15244 whole entry): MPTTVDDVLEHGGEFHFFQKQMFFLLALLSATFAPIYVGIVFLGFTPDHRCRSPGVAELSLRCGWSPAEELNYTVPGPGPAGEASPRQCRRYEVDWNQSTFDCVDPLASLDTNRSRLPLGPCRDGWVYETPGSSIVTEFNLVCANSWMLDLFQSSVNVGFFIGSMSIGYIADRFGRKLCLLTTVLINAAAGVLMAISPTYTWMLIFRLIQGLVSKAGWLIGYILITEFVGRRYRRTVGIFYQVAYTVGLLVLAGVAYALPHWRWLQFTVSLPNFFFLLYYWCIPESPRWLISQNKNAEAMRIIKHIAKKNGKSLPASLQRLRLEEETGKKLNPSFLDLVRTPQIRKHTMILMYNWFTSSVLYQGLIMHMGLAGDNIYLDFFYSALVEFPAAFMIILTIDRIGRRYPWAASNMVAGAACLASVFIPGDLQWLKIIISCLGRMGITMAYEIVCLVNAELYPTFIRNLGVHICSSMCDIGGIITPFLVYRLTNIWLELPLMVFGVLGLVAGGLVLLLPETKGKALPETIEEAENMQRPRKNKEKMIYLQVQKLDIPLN
Protocol: On assay day, cells were trypsinized and resuspended in Krebs-Henseleit Buffer (KHB), pH 7.4 at […]. Cells were preincubated for 15 min in assay plate before addition of test compound or substrate. Test compounds were serially diluted in DMSO and then spiked (2 μL) into in 0.4 mL KHB buffer containing wild-type or OCT2-transfected cells and incubated for 10 minutes. Assay was initiated with the addition of 0.1 mL of 100 μM ^14C-TEA in KHB buffer (20 μM final concentration after mixing). The concentration of TEA is based on the Km. After 10 minutes of incubation, the assay mixture was quenched with addition of 0.5 mL of ice-cold 1×PBS buffer. Samples were then centrifuged at 1000 rpm for 5 min and supernatants were removed. Wash steps were repeated four times with ice-cold PBS. Finally, the cell pellets were lysed with 0.2N NaOH and let sit at room temperature for at least 30 min to ensure complete lysis. Samples were then counted on liquid scintillation counter and dpm counts were used to perform the following calculations.

[6] = plasma, beagle dogs, IV infusion over 30 min
[7] = OCT2 mediated uptake of 14C-TEA (20 μM), MDCKII cells, read-out: IC50
[8] = plasma, beagle dogs, IV infusion over 30 min, read-out: CL (converted)
[9] = plasma, beagle dogs, IV infusion over 30 min, read-out: MRT
[10] = 15 μM, relative to maximum fold induction by 10 or 20 μM rifampicin, DPX2 cells, 24 hours, read-out: % Emax at 15 μM
[11] = beagle dogs, oral, aqueous suspension
[12] = male, dog, plasma, beagle dogs, oral, aqueous suspension, read-out: AUC (μM*h) aqueous suspension
[13] = male, dog, plasma, beagle dogs, oral, aqueous suspension, read-out: Cmax (μM) aqueous suspension

SMILES	MRT ([1]; beagle, in vivo, iv) [h]	clearance ([1]; beagle, in vivo, iv) [mL/min/kg]	Vd [1, 6] [L/kg]	CC50 at 5 days ([2]; CC50 nM in MT-4) [nM]	Emax at 24 h, 15 µM [3] [%]	AUC ([4]; male, beagle, dog, in vivo, po) [µM·h]	Cmax ([4]; male, beagle, dog, in vivo, po) [µM]	F (%) aqueous suspension ([4]; male, beagle, dog, in vivo, po) [%]	IC50 [5, 7] [µM]	IC50 [5] [µM]	clearance [1, 8] [mL/min/kg]	MRT [1, 9] [h]	CC50 at 5 days ([2]; MT-4 cells, mock-infected, CC50 nM in MT-4, MT-4 cells, 5 days incubation) [nM]	Emax at 24 h, 15 µM [3, 10] [%]	F (%) aqueous suspension [4, 11] [%]	AUC [4, 12] [µM·h]	Cmax [4, 13] [µM]	Vd ([1]; in vivo, beagle dogs, IV infusion over 30 min) [L/kg]
O=C(NCc1ccc(F)cc1F)c1cn2c(c(O)c1=O)C(=O)N1[C@H]3CC[C@H](C3)O[C@@H]1C2 [Compound 2, (2R,5S,13aR)-N-(2,4-difluorobenzyl)-8-hydroxy-7,9-dioxo-2,3,4,5,7,9,13,13a-octahydro-2,5-methanopyrido[1′,2′:4,5]pyrazino[2,1-b][1,3]oxazepine-10-carboxamide]	6.5	0.5	0.2	3110	4.5	66.1	7.8	40.7	0.24									
O=C(NCc1ccc(F)cc1F)c1cn2c(c(O)c1=O)C(=O)N1[C@@H]3CC[C@@H](C3)O[C@H]1C2 [Compound 3, (2S,5R,13aS)-N-(2,4-difluorobenzyl)-8-hydroxy-7,9-dioxo-2,3,4,5,7,9,13,13a-octahydro-2,5-methanopyrido[1′,2′:4,5]pyrazino[2,1-b][1,3]oxazepine-10-carboxamide]	4.9	0.783	0.23	38400	7.5	9.2	1.2	18.7	0.25									
O=C(NCc1c(F)cc(F)cc1F)c1cn2c(c(O)c1=O)C(=O)N1[C@H]3CC[C@H](C3)[C@@H]1C2 [Compound 41, (1R,4S,12aR)-7-hydroxy-6,8-dioxo-N-(2,4,6-trifluorobenzyl)-1,2,3,4,6,8,12,12a-octahydro-1,4-methanodipyrido[1,2-a:1′,2′-d]pyrazine-9-carboxamide]	7.5	0.25	0.11	15700	11.5	16.3	2.4	10.7		2.82								
O=C(NCc1c(F)cc(F)cc1F)c1cn2c(c(O)c1=O)C(=O)N1[C@H]3CC[C@H](C3)O[C@@H]1C2 [Compound 42, (2R,5S,13aR)-8-hydroxy-7,9-dioxo-N-(2,4,6-trifluorobenzyl)-2,3,4,5,7,9,13,13a-octahydro-2,5-methanopyrido[1′,2′:4,5]pyrazino[2,1-b][1,3]oxazepine-10-carboxamide]			0.15						0.487		0.333	7.1	3540	21	28.0	28.6	4.5	
O=C(NCc1ccc(F)cc1F)c1cn2c(c(O)c1=O)C(=O)N1[C@H]3CC[C@H](C3)[C@@H]1C2 [Compound 47, (1R,4S,12aR)-N-(2,4-difluorobenzyl)-7-hydroxy-6,8-dioxo-1,2,3,4,6,8,12,12a-octahydro-1,4-methanodipyrido[1,2-a:1′,2′-d]pyrazine-9-carboxamide]				11300					6.2		0.233	7.4		11	12.6	20.4	2.8	0.1
O=C(NCc1c(F)cc(F)cc1F)c1cn2c(c(O)c1=O)C(=O)N1[C@H]3CC[C@H](C3)[C@H]1C2 [Compound 55, (1R,4S,12aS)-7-hydroxy-6,8-dioxo-N-(2,4,6-trifluorobenzyl)-1,2,3,4,6,8,12,12a-octahydro-1,4-methanodipyrido[1,2-a:1′,2′-d]pyrazine-9-carboxamide]	4.2	0.967	0.24	11100	24					0.476								
C[C@@H](NC(=O)c1cn2c(c(O)c1=O)C(=O)N1[C@H]3CC[C@H](C3)[C@@H]1C2)c1c(F)cc(F)cc1F [Compound 77, (1R,4S,12aR)-7-hydroxy-6,8-dioxo-N—((R)-1-(2,4,6-trifluorophenyl)ethyl)-1,2,3,4,6,8,12,12a-octahydro-1,4-methanodipyrido[1,2-a:1′,2′-d]pyrazine-9-carboxamide]	2.2	5	0.64	10100	11					3.83								
O=C(NCc1c(F)cc(F)cc1F)c1cn2c(c(O)c1=O)C(=O)N1[C@H](C2)[C@H]2C[C@@H]1C(F)(F)C2 [Compound 83, (1S,4R,12aS)-3,3-difluoro-7-hydroxy-6,8-dioxo-N-(2,4,6-trifluorobenzyl)-1,2,3,4,6,8,12,12a-octahydro-1,4-methanodipyrido[1,2-a:1′,2′-d]pyrazine-9-carboxamide]	2.4	2.68	0.38	27500	1				10									
O=C(NCc1c(F)cc(F)cc1F)c1cn2c(c(O)c1=O)C(=O)N1[C@@H](C2)[C@H]2C[C@@H]1C(F)(F)C2 [Compound 98, (1S,4R,12aR)-3,3-difluoro-7-hydroxy-6,8-dioxo-N-(2,4,6-trifluorobenzyl)-1,2,3,4,6,8,12,12a-octahydro-1,4-methanodipyrido[1,2-a:1′,2′-d]pyrazine-9-carboxamide]	3.3	0.783	0.16	17900	0				3.73									
